Nine compounds from patent US20220324835A1 (Nurix Therapeutics, Inc., priority 2018, published 2022) can be followed below.

The test system of one assay is anergic human T-cells. Briefly: Anergic T-cell activation assessed by IFNγ secretion (ionomycin-induced anergy). The class given is cell-based. The conditions noted are these: anergic T-cells re-challenged with anti-CD3 and anti-CD28 for 24 hours, read-out: IFNγ Fold change from baseline. In short, it runs like this:
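Human primary T-cells (>95% CD3+) were activated with anti-CD3/anti-CD28 for 2 days, rested 3 days, then made anergic with ionomycin for 18-24 h. Compound (e.g. 10, 1.11, 0.37 μM) was added for 1 h before 24 h anti-CD3/CD28 re-challenge; IFNγ by ELISA or Luminex as fold over untreated anergic baseline, binned A ≤2.50, B 2.51-4.00, C >4.01.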

Another assay has as its system primary human B cells. As to the kind of experiment: B cell activation assay (CD69 on anti-IgM stimulated B cells). The class given is cell-based. Particulars: AUC of dose response curve (10 μM to 1 nM) of CD69 MFI normalized to DMSO control. In short, it runs like this: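 Negatively selected PBMC-derived B cells (>95% CD20+) treated with Cbl-b inhibitors from 10 μM to 1 nM (DMSO <0.5%) and stimulated with anti-IgM for 20 h at 37° C. CD69 MFI on CD20+ IgD+ cells by flow cytometry; dose-response AUC normalized to DMSO plus 2.5 μg/mL anti-IgM-F(ab′)2, binned A-D.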

For `C[C@H](Sc1nncn1C)c1cccc(NC(=O)c2cc(C(=O)N3CC[C@H](O)C3)ccn2)c1` [Compound 140, 4-[[(3S)-3-hydroxypyrrolidin-1-yl]carbonyl]-N-[3-[(1S)-1-[(4-methyl-4H-1,2,4-triazol-3-yl)sulfanyl]ethyl]phenyl]pyridine-2-carboxamide], in the assay on anergic human T-cells, the fold induction at 0.37 µM is not above 2.5, the fold induction at 1.11 µM is not above 2.5 and the fold induction at 10 µM is 2.51 to 4. Further, in the assay on primary human B cells, the “CD69 MFI AUC” value is recorded as “A (A indicates ≤0.5)”.

For the compound `C[C@H](Cc1nncn1C)c1cccc(NC(=O)c2cccc(CCO)n2)c1` [Compound 202, 6-(2-hydroxyethyl)-N-[3-[(2R)-1-(4-methyl-4H-1,2,4-triazol-3-yl)propan-2-yl]phenyl]pyridine-2-carboxamide], in the assay with anergic human T-cells, the fold induction at 0.37 µM is not above 2.5, the fold induction at 1.11 µM is not above 2.5 and the fold induction at 10 µM is 2.51 to 4. Besides, the “CD69 MFI AUC” value with primary human B cells was “C (C indicates 1.01-1.50)”.

As to `C[C@H](Cc1nncn1C)c1cccc(N2Cc3c(ccnc3C3CC3)C2=O)c1` [Compound 257, 4-cyclopropyl-2-[3-[(1R)-1-methyl-2-(4-methyl-1,2,4-triazol-3-yl)ethyl]phenyl]-3H-pyrrolo[3,4-c]pyridin-1-one], in the assay with anergic human T-cells, the fold induction at 0.37 µM was not above 2.5, the fold induction at 1.11 µM was not above 2.5 and the fold induction at 10 µM lay in the range of 2.51 to 4. For the same compound, the “CD69 MFI AUC” value with primary human B cells is “B (B indicates 0.5-1.00)”.

Regarding `Cn1cnnc1[C@@H]1C[C@@H]1c1cccc(N2Cc3c(cccc3C(F)(F)F)C2=O)c1` [Compound 282, 2-(3-((1S,2R)-2-(4-methyl-4H-1,2,4-triazol-3-yl)cyclopropyl)phenyl)-4-(trifluoromethyl)isoindolin-1-one], in the assay with anergic human T-cells, the fold induction at 0.37 µM is not above 2.5, the fold induction at 1.11 µM is not above 2.5 and the fold induction at 10 µM was not above 2.5. Moreover, the “CD69 MFI AUC” value in the assay on primary human B cells is “B (B indicates 0.5-1.00)”.

On to `C[C@H](Cc1nncn1C)c1ccnc(NC(=O)c2cccc(C(F)(F)F)n2)c1` [Compound 302, (R)-N-(4-(1-(4-methyl-4H-1,2,4-triazol-3-yl)propan-2-yl)pyridin-2-yl)-6-(trifluoromethyl)picolinamide], for which, in the assay on anergic human T-cells, the fold induction at 0.37 µM is not above 2.5, the fold induction at 1.11 µM was not above 2.5 and the fold induction at 10 µM is not above 2.5. In addition, the “CD69 MFI AUC” value in the assay with primary human B cells was “B (B indicates 0.5-1.00)”.

As for `C[C@H](Cc1nncn1C)c1cccc(NC(=O)c2nc(C(F)(F)F)c[nH]2)c1` [Compound 326, (R)-N-(3-(1-(4-methyl-4H-1,2,4-triazol-3-yl)propan-2-yl)phenyl)-4-(trifluoromethyl)-1H-imidazole-2-carboxamide], in the assay with anergic human T-cells, the fold induction at 0.37 µM was not above 2.5, the fold induction at 1.11 µM is not above 2.5 and the fold induction at 10 µM was in the range of 2.51 to 4. In the assay on primary human B cells, the “CD69 MFI AUC” value was “A (A indicates ≤0.5)”.

Consider `Cn1cnnc1[C@@H]1C[C@@H]1c1cccc(N2Cc3c(ccnc3C(F)(F)F)C2=O)c1` [Compound 369, 2-{3-[(1S,2R)-2-(4-methyl-4H-1,2,4-triazol-3-yl)cyclopropyl]phenyl}-4-(trifluoromethyl)-1H,2H,3H-pyrrolo[3,4-c]pyridin-1-one], for which, in the assay on anergic human T-cells, the fold induction at 0.37 µM was not above 2.5, the fold induction at 1.11 µM was not above 2.5 and the fold induction at 10 µM lay in the range of 2.51 to 4. For the same compound, the “CD69 MFI AUC” value in the assay on primary human B cells is given as “C (C indicates 1.01-1.50)”.

As for `Cc1cc2c(c(C3CC3)n1)CN(c1cccc([C@H](C)Cc3nncn3C)c1)C2=O` [Compound 372, 4-cyclopropyl-6-methyl-2-{3-[(2R)-1-(4-methyl-4H-1,2,4-triazol-3-yl)propan-2-yl]phenyl}-1H,2H,3H-pyrrolo[3,4-c]pyridin-1-one], in the assay on anergic human T-cells, the fold induction at 0.37 µM is not above 2.5, the fold induction at 1.11 µM was not above 2.5 and the fold induction at 10 µM lay in the range of 2.51 to 4. Further, the “CD69 MFI AUC” value with primary human B cells is recorded as “A (A indicates ≤0.5)”.

For `CNCc1ccc(C(=O)Nc2cccc([C@H](C)Cc3nncn3C)c2)nc1C1CC1` [Compound 376, (R)-6-cyclopropyl-N-(3-(1-(4-methyl-4H-1,2,4-triazol-3-yl)propan-2-yl)phenyl)-5-((methylamino)methyl)picolinamide], in the assay with anergic human T-cells, the fold induction at 0.37 µM was not above 2.5, the fold induction at 1.11 µM is not above 2.5 and the fold induction at 10 µM was more than 4.01. Moreover, the “CD69 MFI AUC” value with primary human B cells is on record as “B (B indicates 0.5-1.00)”.
